From patent publication US20110195892A1, “Artifical Pulmonary Surfactant Compositions” (priority 2005, published 2011)
Square brackets hold non-standard residues; d marks the D form. Peptide text beside a SMILES is read from it.

Assays:
erythrocyte = type: cell-based
Description: The hemolytic activity of each peptide was measured in the way as will be described hereinafter.
Each peptide (ca. 1 mg) was dissolved in 20 (l of 100% acetic acid and diluted with phosphate buffer to reach a total amount of 5 ml. The resulting solution was measured for its absorbency (280 nm) to determine its concentration. The solution was then used for experiments in situ by dilution with phosphate buffer.
A blood sample (ca. 3 ml) was centrifuged at 2,000 rpm at 4° C. for 10 minutes and the supernatant was removed to form an erythrocyte sample. To the erythrocyte sample was added 1 ml of phosphate buffer, and the resulting solution was stirred well, followed by centrifugation in the manner as described above. These procedures were repeated three times to obtain the erythrocyte alone. Moreover, 1 ml of phosphate buffer was added to the resulting erythrocyte, and the resulting mixture was stirred well, followed by distributing it by 60 μl to microtubes and centrifuging to remove the supernatant therefrom. The resulting erythrocyte was in turn used for further experiments.
The peptide and a protein solution were then added by 1 ml to the erythrocyte sample, and the resulting solution was stirred well, followed by allowing it to stand at 25° C. for 60 minutes. Thereafter, the tubes were centrifuged to collect the supernatant only (100 μl) which was in turn measured at an absorbency of 542 nm. The supernatant was then returned to each tube and a drop of surfactant Triton® X was added to each tube, followed by stirring it well and measuring for its absorbency at 542 nm.

[1] = Wilhelmy tensiometer; Japanese Patent Publication No. 2004-305006 A1; cited from earlier work

Compound | hemolytic activity of the peptide itself compared to peptide Hel 13-5 (erythrocyte) | hemolytic activity (in words) (erythrocyte) | hemolytic property (erythrocyte) | surface tension-surface area curve (hysteresis curve) compared with Surfacten [1]
CC(C)C[C@H](NC(=O)[C@H](CC(C)C)NC(=O)[C@H](CC(C)C)NC(=O)[C@H](CCCCN)NC(=O)[C@@H](CC(C)C)NC(=O)[C@H](CC(C)C)NC(=O)[C@H](CCCCN)NC(=O)[C@H](CC(C)C)NC(=O)[C@H](Cc1c[nH]c2ccccc12)NC(=O)[C@H](CC(C)C)NC(=O)[C@@H](CCCCN)NC(=O)[C@@H](CC(C)C)NC(=O)[C@H](CC(C)C)NC(=O)[C@H](CC(C)C)NC(=O)[C@H](CCCCN)NC(=O)[C@H](CC(C)C)NC(=O)[C@H](CC(C)C)NC(=O)[C@@H](N)CCCCN)C(=O)O [Hel 13-5D3, NH2-Lys Leu Leu Lys Leu Leu D-Leu D-Lys Leu Trp Leu Lys D-Leu Leu Lys Leu Leu Leu-COOH] (H-KLLKLL[dL][dK]LWLKL[dL]KLLL-OH) | lower by several times |  |  | 
H-KLLKLLLKLWLKLLKLLL-OH [Hel 13-5, NH2-Lys Leu Leu Lys Leu Leu Leu Lys Leu Trp Leu Lys Leu Leu Lys Leu Leu Leu-COOH] |  | strong hemolytic activity | does not demonstrate a hemolytic property | equal curve to that of Surfacten®
